The values below come from US11820766B2, “Monoacylglycerol lipase modulators” (Janssen Pharmaceutica NV, priority 2018, dated 2023).

SMILES strings stand for the structures. Counter-ions that a name gives are not always drawn.

One assay has as its target T1, human MGL from HeLa cells (Homo sapiens, UniProt Q99685).
T1 construct: combining endogenously expressed MGL from HeLa cells with test compounds; endogenous in cells; host or cells: HeLa cells / cell homogenates
T1 sequence (Q99685 1-303): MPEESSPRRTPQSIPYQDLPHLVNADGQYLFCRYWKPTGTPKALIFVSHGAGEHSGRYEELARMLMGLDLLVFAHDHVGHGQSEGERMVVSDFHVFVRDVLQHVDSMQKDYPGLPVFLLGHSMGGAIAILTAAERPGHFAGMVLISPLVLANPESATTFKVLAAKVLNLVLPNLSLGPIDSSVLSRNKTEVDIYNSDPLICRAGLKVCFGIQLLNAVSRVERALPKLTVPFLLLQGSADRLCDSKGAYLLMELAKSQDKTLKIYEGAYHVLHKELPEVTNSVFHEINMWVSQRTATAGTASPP
Description: In vitro MGL activity assay: [glycerol-1,3-3H]-oleyl glycerol cleavage by MGL from HeLa cells. The format is biochemical. The following applies: 300 nM [Glycerol-1,3-3H]-oleyl glycerol, one hour. The text has this:
MGL is the predominant hydrolase in HeLa cells/cell homogenates.
`C[C@H]1c2nn(C)c(-c3cc(F)c(F)c(F)c3)c2CCN1C(=O)c1cnc2ncccc2c1` [Example 490, [(7S)-2,7-Dimethyl-3-(3,4,5-trifluorophenyl)-5,7-dihydro-4H-pyrazolo[3,4-c]pyridin-6-yl]-(1,8-naphthyridin-3-yl)methanone] had an IC50 of 226 nM.

`Cc1cccc2c(C(=O)N3CCc4c(nn(C)c4-c4cc(F)c(F)c(F)c4)[C@@H]3C)cnn12` [Example 386, [(7S)-2,7-Dimethyl-3-(3,4,5-trifluorophenyl)-5,7-dihydro-4H-pyrazolo[3,4-c]pyridin-6-yl]-(7-methylpyrazolo[1,5-a]pyridin-3-yl)methanone] had an IC50 of 11.7 nM.

`C[C@H]1c2nn(C)c(-c3cc(F)c(F)c(F)c3)c2CCN1C(=O)c1n[nH]c2ccc(F)cc12` [Example 364, [(7S)-2,7-Dimethyl-3-(3,4,5-trifluorophenyl)-5,7-dihydro-4H-pyrazolo[3,4-c]pyridin-6-yl]-(5-fluoro-1H-indazol-3-yl)methanone]: the IC50 is 20.3 nM.

As for `C[C@H]1c2nn(C)c(-c3cc(F)c(F)c(F)c3)c2CCN1C(=O)c1cnc2c(c1)OCCN2C` [Example 572, [(7S)-2,7-Dimethyl-3-(3,4,5-trifluorophenyl)-5,7-dihydro-4H-pyrazolo[3,4-c]pyridin-6-yl]-(4-methyl-2,3-dihydropyrido[3,2-b][1,4]oxazin-7-yl)methanone], half-maximal inhibition (IC50) required 51.9 nM.

Compound `Cc1nc(C(=O)N2CCc3c(nn(C)c3-c3cc(F)c(F)c(F)c3)[C@@H]2C)c2cnn(C)c2n1` [Example 617, (S)-(1,6-Dimethyl-1H-pyrazolo[3,4-d]pyrimidin-4-yl)(2,7-dimethyl-3-(3,4,5-trifluorophenyl)-2,4,5,7-tetrahydro-6H-pyrazolo[3,4-c]pyridin-6-yl)methanone] came in with a half-inhibitory concentration (IC50) of 32.4 nM.

`C[C@H]1c2nn(C)c(-c3cc(F)c(F)c(F)c3)c2CCN1C(=O)c1cnc2[nH]ncc2c1` [Example 423, [(7S)-2,7-Dimethyl-3-(3,4,5-trifluorophenyl)-5,7-dihydro-4H-pyrazolo[3,4-c]pyridin-6-yl]-(1H-pyrazolo[3,4-b]pyridin-5-yl)methanone.TFA salt] displayed an IC50 of 41 nM.

Consider `C[C@H]1c2nn(C)c(-c3cc(F)c(F)c(F)c3)c2CCN1C(=O)c1cn(C)c2ccc(F)cc12` [Example 356, [(7S)-2,7-Dimethyl-3-(3,4,5-trifluorophenyl)-5,7-dihydro-4H-pyrazolo[3,4-c]pyridin-6-yl]-(5-fluoro-1-methyl-indol-3-yl)methanone], for which the IC50 was found to be 18.6 nM.

The compound `C[C@H]1c2nn(C)c(-c3cc(F)c(F)c(F)c3)c2CCN1C(=O)c1n[nH]c2ncccc12` [Example 426, [(7S)-2,7-Dimethyl-3-(3,4,5-trifluorophenyl)-5,7-dihydro-4H-pyrazolo[3,4-c]pyridin-6-yl]-(1H-pyrazolo[3,4-b]pyridin-3-yl)methanone] registered an IC50 of 14.5 nM.

Consider `COc1cc(Cl)cc(-c2c3c(nn2C)[C@H](C)N(C(=O)c2c(C)nc4ccccn24)CC3)c1` [Example 395, [(7S)-3-(3-Chloro-5-methoxy-phenyl)-2,7-dimethyl-5,7-dihydro-4H-pyrazolo[3,4-c]pyridin-6-yl]-(2-methylimidazo[1,2-a]pyridin-3-yl) methanone], for which the IC50 came to 6.73 nM.

Take `Cc1onc(C(=O)N2CCc3c(nn(C)c3-c3cc(F)c(F)c(F)c3)[C@@H]2C)c1C` [Example 352, (4,5-Dimethylisoxazol-3-yl)-[(7S)-2,7-dimethyl-3-(3,4,5-trifluorophenyl)-5,7-dihydro-4H-pyrazolo[3,4-c]pyridin-6-yl]methanone]: the IC50 turned out to be 30.5 nM.

Turning to `Cc1cc(C(=O)N2CCc3c(nn(C)c3-c3cc(F)c(F)c(F)c3)[C@@H]2C)c2cnn(C)c2n1` [Example 424, (1,6-Dimethylpyrazolo[3,4-b]pyridin-4-yl)-[(7S)-2,7-dimethyl-3-(3,4,5-trifluorophenyl)-5,7-dihydro-4H-pyrazolo[3,4-c]pyridin-6-yl]methanone], half-maximal inhibition (IC50) was put at 10.7 nM.

As for `C[C@H]1c2nn(C)c(-c3cc(F)c(F)c(F)c3)c2CCN1C(=O)c1cnn(C)c1C1CC1(F)F` (stereo partly drawn) [Example 336, (5-(2,2-Difluorocyclopropyl)-1-methyl-1H-pyrazol-4-yl)((S)-2,7-dimethyl-3-(3,4,5-trifluorophenyl)-4,5-dihydro-2H-pyrazolo[3,4-c]pyridin-6-yl)methanone], the concentration for half-maximal inhibition (IC50) worked out at 8.7 nM.

In turn, `C[C@H]1c2nn(C)c(-c3cc(F)c(F)c(F)c3)c2CCN1C(=O)c1ccn2ncc(F)c2c1` [Example 378, [(7S)-2,7-Dimethyl-3-(3,4,5-trifluorophenyl)-5,7-dihydro-4H-pyrazolo[3,4-c]pyridin-6-yl]-(3-fluoropyrazolo[1,5-a]pyridin-5-yl)methanone] had an IC50 of 38.8 nM.

Still in this assay, the particulars now being: 300 nM [Glycerol-1,3-3H]-oleyl glycerol, one hour incubation.
For the compound `CC1c2nn(C)c(-c3cc(F)cc(F)c3)c2CCN1C(=O)c1ccc2ccncc2c1` (stereo not drawn) [Example 161, (3-(3,5-Difluorophenyl)-2,7-dimethyl-2,4,5,7-tetrahydro-6H-pyrazolo[3,4-c]pyridin-6-yl)(isoquinolin-7-yl)methanone], the IC50 was 260 nM.

Compound `Cn1nc2c(c1-c1ccccc1)CCN(C(=O)c1c[nH]c3c(Cl)cccc13)C2` [Example 48, (7-Chloro-1H-indol-3-yl)(2-methyl-3-phenyl-2,4,5,7-tetrahydro-6H-pyrazolo[3,4-c]pyridin-6-yl)methanone] had an IC50 of 103 nM.

Turning to `C[C@H]1c2nn(C)c(-c3cc(F)c(F)c(F)c3)c2CCN1C(=O)c1cc(F)cc(-n2cnnc2)c1` [Example 292, [(7S)-2,7-Dimethyl-3-(3,4,5-trifluorophenyl)-5,7-dihydro-4H-pyrazolo[3,4-c]pyridin-6-yl]-[3-fluoro-5-(1,2,4-triazol-4-yl)phenyl]methanone], the IC50 came out at 245 nM.

`CCn1nc2c(c1-c1ccccc1)CCN(C(=O)c1ccc3ncccc3c1)C2` [Example 91, (2-Ethyl-3-phenyl-2,4,5,7-tetrahydro-6H-pyrazolo[3,4-c]pyridin-6-yl)(quinolin-6-yl)methanone] yielded an IC50 of 781 nM.

The compound `Cn1nc2c(c1-c1cc3ccccc3[nH]1)CCN(C(=O)c1ccc3ncccc3c1)C2` [Example 104, (3-(1H-Indol-2-yl)-2-methyl-2,4,5,7-tetrahydro-6H-pyrazolo[3,4-c]pyridin-6-yl)(quinolin-6-yl)methanone] had an IC50 of 791 nM.

The compound `C[C@H]1c2nn(C)c(-c3cc(F)c(F)c(F)c3)c2CCN1C(=O)c1cccc(-c2cnn(C)c2)c1` [Example 273, [(7S)-2,7-Dimethyl-3-(3,4,5-trifluorophenyl)-5,7-dihydro-4H-pyrazolo[3,4-c]pyridin-6-yl]-[3-(1-methylpyrazol-4-yl)phenyl]methanone] returned an IC50 of 93.1 nM.

`C[C@H]1c2nn(C)c(-c3cc(F)c(F)c(F)c3)c2CCN1C(=O)c1ccc(-c2cn[nH]c2)cc1` [Example 268, [(7S)-2,7-Dimethyl-3-(3,4,5-trifluorophenyl)-5,7-dihydro-4H-pyrazolo[3,4-c]pyridin-6-yl]-[4-(1H-pyrazol-4-yl)phenyl]methanone] had an IC50 of 24.2 nM.

Consider `C[C@H]1c2nn(C)c(-c3cc(F)c(F)c(F)c3)c2CCN1C(=O)c1cnc2c(cnn2C)c1` [Example 231, (S)-(2,7-Dimethyl-3-(3,4,5-trifluorophenyl)-2,4,5,7-tetrahydro-6H-pyrazolo[3,4-c]pyridin-6-yl)(1-methyl-1H-pyrazolo[3,4-b]pyridin-5-yl)methanone], for which the 50% inhibitory concentration (IC50) is 124 nM.

On to `C[C@H]1c2nn(C)c(-c3cc(F)c(F)c(F)c3)c2CCN1C(=O)c1cc(-n2nccn2)cc(C(F)(F)F)c1` [Example 287, [(7S)-2,7-Dimethyl-3-(3,4,5-trifluorophenyl)-5,7-dihydro-4H-pyrazolo[3,4-c]pyridin-6-yl]-[3-(triazol-2-yl)-5-(trifluoromethyl)phenyl]methanone], for which the IC50 is 60.4 nM.

With `Cn1nc2c(c1-c1ccccc1)CCN(C(=O)c1cccc3c1ccn3C)C2` [Example 51, (1-Methyl-1H-indol-4-yl)(2-methyl-3-phenyl-2,4,5,7-tetrahydro-6H-pyrazolo[3,4-c]pyridin-6-yl)methanone], inhibition was half-maximal at 15.6 nM (IC50).

Compound `COc1ccc(C)c(C(=O)N2CCc3c(nn(C)c3-c3cc(F)c(F)c(F)c3)[C@@H]2C)n1` [Example 302, [(7S)-2,7-Dimethyl-3-(3,4,5-trifluorophenyl)-5,7-dihydro-4H-pyrazolo[3,4-c]pyridin-6-yl]-(6-methoxy-3-methyl-2-pyridyl)methanone] had an IC50 of 312 nM.

For `COc1cc(Cl)cc(C(=O)N2CCc3c(nn(C)c3-c3ccccc3)C2)c1` [Example 16, (3-Chloro-5-methoxyphenyl)(2-methyl-3-phenyl-2,4,5,7-tetrahydro-6H-pyrazolo[3,4-c]pyridin-6-yl)methanone], the IC50 is 77.9 nM.

`C[C@H]1c2nn(C)c(-c3cc(F)c(F)c(F)c3)c2CCN1C(=O)c1cc(-c2cnn(C)c2)ccc1F` [Example 274, [(7S)-2,7-Dimethyl-3-(3,4,5-trifluorophenyl)-5,7-dihydro-4H-pyrazolo[3,4-c]pyridin-6-yl]-[2-fluoro-5-(1-methylpyrazol-4-yl)phenyl]methanone] gave an IC50 of 13.7 nM.

`C[C@H]1c2nn(C)c(-c3cc(F)c(F)c(F)c3)c2CCN1C(=O)c1ccc(-c2ccccn2)s1` [Example 325, [(7S)-2,7-Dimethyl-3-(3,4,5-trifluorophenyl)-5,7-dihydro-4H-pyrazolo[3,4-c]pyridin-6-yl]-[5-(2-pyridyl)-2-thienyl]methanone]: the IC50 is 7.9 nM.
